The source made the active and inactive calls. Bounds are passed on as bounds.

For experiment [1], the target named is T1, Histone-lysine N-methyltransferase NSD2 (Homo sapiens, UniProt O96028).
T1 sequence (O96028 whole entry): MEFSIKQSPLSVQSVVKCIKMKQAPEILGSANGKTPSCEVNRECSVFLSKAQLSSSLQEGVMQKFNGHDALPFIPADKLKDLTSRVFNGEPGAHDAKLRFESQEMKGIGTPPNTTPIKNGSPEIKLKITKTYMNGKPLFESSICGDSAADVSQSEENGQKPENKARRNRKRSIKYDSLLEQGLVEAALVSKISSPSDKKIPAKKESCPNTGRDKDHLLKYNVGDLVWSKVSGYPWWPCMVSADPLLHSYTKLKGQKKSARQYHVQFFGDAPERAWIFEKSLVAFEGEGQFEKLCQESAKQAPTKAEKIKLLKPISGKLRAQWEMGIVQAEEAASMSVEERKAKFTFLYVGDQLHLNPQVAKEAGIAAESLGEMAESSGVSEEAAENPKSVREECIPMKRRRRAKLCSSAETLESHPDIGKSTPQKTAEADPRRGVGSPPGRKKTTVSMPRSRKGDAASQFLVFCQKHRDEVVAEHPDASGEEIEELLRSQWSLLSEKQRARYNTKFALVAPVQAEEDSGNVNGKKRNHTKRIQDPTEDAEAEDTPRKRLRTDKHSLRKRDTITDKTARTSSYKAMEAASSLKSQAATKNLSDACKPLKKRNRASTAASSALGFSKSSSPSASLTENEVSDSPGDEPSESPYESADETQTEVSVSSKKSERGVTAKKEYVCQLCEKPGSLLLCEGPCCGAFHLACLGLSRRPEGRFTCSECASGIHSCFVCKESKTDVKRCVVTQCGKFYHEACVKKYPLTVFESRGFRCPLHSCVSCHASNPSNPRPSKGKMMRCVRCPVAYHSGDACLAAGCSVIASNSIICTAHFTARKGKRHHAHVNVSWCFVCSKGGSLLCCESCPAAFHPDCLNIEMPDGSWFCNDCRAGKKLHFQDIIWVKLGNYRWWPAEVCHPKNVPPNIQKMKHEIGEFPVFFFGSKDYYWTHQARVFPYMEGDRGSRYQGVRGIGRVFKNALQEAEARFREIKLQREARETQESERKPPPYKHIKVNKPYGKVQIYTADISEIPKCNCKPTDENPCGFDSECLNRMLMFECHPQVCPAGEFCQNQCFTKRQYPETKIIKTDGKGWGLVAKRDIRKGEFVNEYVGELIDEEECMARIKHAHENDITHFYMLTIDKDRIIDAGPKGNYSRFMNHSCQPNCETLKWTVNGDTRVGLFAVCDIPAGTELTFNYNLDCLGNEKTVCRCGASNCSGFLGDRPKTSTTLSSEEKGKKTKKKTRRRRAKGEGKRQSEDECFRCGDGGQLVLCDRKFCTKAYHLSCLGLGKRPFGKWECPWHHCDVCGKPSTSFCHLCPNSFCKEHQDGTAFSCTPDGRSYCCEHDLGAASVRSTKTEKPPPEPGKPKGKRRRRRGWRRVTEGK
The experiment is classed as biochemical.

The target of experiment [2] is cAMP-dependent protein kinase catalytic subunit alpha (Homo sapiens, UniProt P17612). The experiment is classed as functional.

As to `CCC(C)NC(=O)c1c(N)n(CCCOC)c2nc3ccccc3nc12` (configuration not stated), the AC50 (commonly the concentration at which the activity in the assay is half-maximal) in experiment [1] was 4.25 µM (active).
On to `CC(=NNC(=N)N)c1cc(NC(=O)NCCCCCCNC(=O)Nc2cc(C(C)=NNC(=N)N)cc(C(C)=NNC(=N)N)c2)cc(C(C)=NNC(=N)N)c1`, for which the Ki (as a rule, a dissociation constant, usually derived from enzyme kinetics or from competition with a known ligand) in experiment [2] was > 7.94 µM (inactive).
